Results from patent US11213508B2, “Compositions comprising urolithins and uses thereof for the stimulation of insulin secretion” (Centre National de la Recherche Scientifique (CNRS), priority 2013, dated 2022).
pEC50: −log10 of the molar value.

How the values were obtained:
[1] = test system: INS-1 insulin-secreting β-cells; experiment: Glibenclamide-stimulated insulin secretion in INS-1 cells; assay type: cell-based; conditions: for stimulation of insulin secretion in the presence of glibenclamide: 0 to 20 μmol·L^−1
Experimental: The insulin-secreting cell line INS-1 (a gift from Professor C. B. Wollheim) was cultured in RPMI-1640, supplemented with 10% fetal calf serum (FCS), 100 U·mL^−1 penicillin, 100 μg·mL^−1 streptomycin, 2 mmol·L^−1 L-glutamine, 10 mmol·L^−1 HEPES, 1 mmol·L^−1 sodium pyruvate, and […] 2-mercaptoethanol, as previously described by Youl et al. (2010). Cells were seeded in 24-well plates (4×10^5 cells per well) and were used for experiments after 5 days of culture.
Before the treatment, RPMI medium was removed and the cells were washed twice with HEPES-balanced Krebs-Ringer bicarbonate buffer (KRB) containing (in mmol·L^−1): 123 NaCl, 5.4 KCl, 1.3 KH2PO4, 2.7 MgSO4, 2.9 CaCl2, 5 NaHCO3 and 20 HEPES, pH 7.5, with 2 g·L^−1 bovine serum albumin (KRB/BSA). Cells were incubated for 1 h (5% CO2, 37° C.) in KRB medium containing 8.3 mmol·L^−1 glucose (glucose-stimulated secretion) in the presence or absence of the compounds tested. At the end of the 1 h incubation period, the medium was sampled and stored at −20° C. until the insulin assay. Insulin concentration in cell supernatants was determined using the homogeneous time resolved fluorescence technology (HTRF), according to the manufacturer's instructions (HTRF insulin assay kit, Cisbio International, Bagnols-sur-Ceze, France). Briefly, two anti-insulin antibodies were used; one labelled with Eu^3+-Cryptate and one labelled with XL665 recognizing distinct epitopes. When these two fluorophores bind to insulin molecules, the two antibodies come into close proximity, allowing fluorescence resonance energy transfer (FRET) to occur between the Eu^3+-Cryptate and the XL665. This FRET increases proportionally with the insulin concentrations. All the experiments were performed at least in quadruplicate.
Material and methods were the same as described in example 1. For the determination of insulin secretion, cells were incubated for 1 h (5% CO2, 37° C.) in KRB medium containing 1.4 mmol·L^−1 glucose (low-glucose condition) and 0.01 μmol·L^−1 glibenclamide (glibenclamide-stimulated secretion), in the presence or absence of urolithins. At the end of the 1 h incubation period, the medium was sampled and stored at −20° C. until the insulin assay. Insulin concentration in cell supernatants was determined as described in Example 1.

[2] = test system: rat isolated perfused pancreas; experiment: Insulin secretion in the rat isolated perfused pancreas; conditions: for AUC of insulin produced above the basal level: urolithins 10 μM
Experimental: Pancreas was isolated from male Wistar rats of 250-300 g body weight under pentobarbital anaesthesia (60 mg/kg i.p.). Previously described technique (Cadene et al., 1996) was used to isolate the pancreas from neighboring tissues. The organ was then transferred into a plastic chamber maintained at 37.5° C. Perfusion medium was Krebs-Ringer bicarbonate buffer containing 2 g/l bovine serum albumin and 5 mmol·L^−1 (non stimulant condition) or 8.3 mmol·L^−1 (stimulant condition) glucose, and continuously bubbled with a mixture of 95% O2/5% CO2. Infusion pressure was selected to provide a pancreatic outflow of 2.5 ml/min. The first sample was taken 30 min after initiation of perfusion to allow for an adaptation period. Two additional control samples were collected 10 and 15 min later, immediately followed by switching to the same buffer containing urolithins (10 μmol·L^−1). Pancreatic effluents were then collected at the following times (minutes): 17, 18, 19, 20, 21, 27, 32, 42. Pancreas was then washed using the same buffer in the absence of urolithin. Two additional samples were taken 5 and 15 min after urolithin withdrawal.
All samples were collected for 1 min allowing determinations of pancreatic effluent output, and immediately frozen for insulin assay (Cisbio HTRF method). Insulin output rate (ng/min) was calculated by multiplying the hormone concentration (ng/ml) in the effluent by the corresponding flow rate (ml/min).
Amplitude of stimulation of insulin secretion by urolithins was estimated by calculating the Area Under the Curve (AUC) of insulin produced above the basal level (trapezoidal rule). Before administration of urolithins, insulin secretion levels were 3.39±0.58 ng/min (n=14 pancreases) and 67.5±7.80 ng/min (n=15 pancreases), for 5 mmol·L^−1 and 8.3 mmol·L^−1 glucose, respectively.

[3] = 1.4 mmol·L^−1 glucose + 0.01 μmol·L^−1 glibenclamide

SMILES	stimulation of insulin secretion in the presence of glibenclamide [1]	concentration at which maximal effect was obtained [1, 3] [µmol/L]	AUC of insulin produced above the basal level [2]	maximal response, stimulation as compared to glibenclamide alone [1, 3]	pEC50 [1, 3]	stimulation of glibenclamide-induced response ([1]; urolithin 5 μmol·L^−1, 1.4 mmol·L^−1 glucose + 0.01 μmol·L^−1 glibenclamide)	effect on insulin secretion under non-stimulating glucose condition ([2]; 10 μmol·L^−1, 5 mmol·L^−1 glucose)	effect on insulin secretion under stimulating glucose condition ([2]; 10 μmol·L^−1, 8.3 mmol·L^−1 glucose)	lowest concentration inducing some stimulation of insulin secretion ([2]; stimulating glucose condition) [µM]
O=c1oc2cc(O)ccc2c2ccc(O)cc12 [Urolithin A, urolithin A]	concentration-dependently stimulated insulin secretion	5	2609.5 ng insulin secreted for 32 min	–	–	–	–	–	–
O=c1oc2cc(O)ccc2c2ccccc12 [Urolithin B, urolithin B]	concentration-dependently stimulated insulin secretion	–	142.0 ng insulin secreted for 32 min	130%	–	–	–	–	–
O=c1oc2cc(O)ccc2c2cc(O)c(O)cc12 [Urolithin C, urolithin C]	concentration-dependently stimulated insulin secretion	–	9160.0 ng insulin secreted for 32 min	about 200%	~5.30	about 150%	had no effect	induced a major amplification	1
O=c1oc2c(O)c(O)ccc2c2cc(O)c(O)cc12 [Urolithin D, urolithin D]	concentration-dependently stimulated insulin secretion	–	387.5 ng insulin secreted for 32 min	–	–	–	–	–	–
